Assay results taken from patent US20060173048A1, “Imidazole derivatives” (priority 2005, published 2006).
pKi: −log10 of the molar value.

What was measured:
[1] = target: T1, rat mGlu2 receptor (Rattus norvegicus, UniProt P31421); assay: [3H]-LY354740 binding on mGlu2 transfected CHO cell membranes; details: displacement of 10 nM [3H]-LY354740, membranes of CHO cells transfected with rat mGlu2, room temperature, 1 hour
T1 construct: expressed in transfected cells; host or cells: CHO cells, stably transfected (G-418 selection); membranes were prepared from them
From the text: [^3H]-LY354740 Binding on mGlu2 Transfected CHO Cell Membranes. Transfection and Cell Culture
cDNA encoding the rat mGlu2 receptor protein in pBluescript II was subcloned into the eukaryotic expression vector pcDNA I-amp from Invitrogen Ltd (Paisley, UK). This vector construct (pcD1mGR^2) was co-transfected with a psvNeo plasmid encoding the gene for neomycin resistance, into CHO cells by a modified calcium phosphate method described by Chen & Okayama (1988). The cells were maintained in Dulbecco's Modified Eagle medium with reduced L-glutamine (2 mM final concentration) and 10% dialysed foetal calf serum from Gibco-Invitrogen (Carlsbad, Calif., USA). Selection was made in the presence of G-418 (1000 ug/ml final) and […]. Clones were identified by reverse transcription of 5 μg total RNA, followed by PCR using mGlu2 receptor specific primers 5′-[…]-3′ and 540 -[…]-3′ in 60 mM Tris HCl (pH 10), 15 mM (NH4)2SO4, 2 mM MgCl2, 25 units/ml Taq Polymerase with 30 cycles annealing at 60° C. for 1 min., extention at 72° C. for 30 s, and 1 min. 95° C. denaturation.
Cells, cultured as above, were harvested and washed three times with cold PBS and frozen at −80° C. The pellet was resuspended in cold 20 mM HEPES-NaOH buffer containing 10 mM EDTA (pH 7.4), and homogenised with a polytron (Kinematica, AG, Littau, Switzerland) for 10 s at 10 000 rpm. After centrifugation for 30 min. at 4° C., the pellet was washed once with the same buffer, and once with cold 20 mM HEPES-NaOH buffer containing 0.1 mM EDTA, (pH 7.4). Protein content was measured using the micro BCA method from Pierce-Perbio (Rockford, Ill., USA) using bovine serum albumin as standard.
After thawing, the membranes were resuspended in cold 50 mM Tris-HCl buffer containing 2 mM MgCl2 (pH 7) (binding buffer). The final concentration of the membranes in the assays was 25 μg protein/ml. Inhibition experiments were performed with membranes incubated with 10 nM [^3H]-LY354740 at room temperature, for 1 hour, in presence of various concentrations of the compound to be tested. Following the incubations, membranes were filtered onto Whatmann GF/B glass fiber filters and washed 5 times with cold binding buffer. Non specific binding was measured in the presence of 10 μM DCG IV. After transfer of the filters into plastic vials containing 10 ml of Ultima-gold scintillation fluid from Perkin-Elmer (Boston, Mass., USA), the radioactivity was measured by liquid scintillation in a Tri-Carb 2500 TR counter (Packard, Zürich, Switzerland).
The inhibition curves were fitted with a four parameter logistic equation giving IC50 values, and Hill coefficients.

T1 sequence (P31421 19-872): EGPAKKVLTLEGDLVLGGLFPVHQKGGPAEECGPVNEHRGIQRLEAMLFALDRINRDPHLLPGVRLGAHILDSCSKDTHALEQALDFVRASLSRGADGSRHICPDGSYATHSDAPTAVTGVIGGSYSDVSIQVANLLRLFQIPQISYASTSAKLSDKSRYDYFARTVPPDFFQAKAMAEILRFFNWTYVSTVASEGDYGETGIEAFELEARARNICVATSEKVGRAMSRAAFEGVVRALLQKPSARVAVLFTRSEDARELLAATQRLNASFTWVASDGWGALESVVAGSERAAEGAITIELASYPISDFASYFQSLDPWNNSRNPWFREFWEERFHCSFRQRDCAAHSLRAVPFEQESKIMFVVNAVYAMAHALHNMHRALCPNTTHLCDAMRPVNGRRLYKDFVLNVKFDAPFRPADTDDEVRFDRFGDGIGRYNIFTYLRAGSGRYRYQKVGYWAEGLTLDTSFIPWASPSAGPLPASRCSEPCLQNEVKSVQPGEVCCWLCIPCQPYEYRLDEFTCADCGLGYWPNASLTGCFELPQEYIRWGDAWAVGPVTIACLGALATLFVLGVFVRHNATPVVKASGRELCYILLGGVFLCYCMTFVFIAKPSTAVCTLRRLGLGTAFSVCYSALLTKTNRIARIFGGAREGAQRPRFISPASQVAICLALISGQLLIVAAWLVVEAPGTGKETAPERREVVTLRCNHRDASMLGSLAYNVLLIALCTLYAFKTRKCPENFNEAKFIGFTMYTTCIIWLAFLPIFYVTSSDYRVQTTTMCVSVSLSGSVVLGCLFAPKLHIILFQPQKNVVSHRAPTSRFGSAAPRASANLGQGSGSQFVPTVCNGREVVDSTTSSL

Row | SMILES | pKi [1] | melting point
1 | C=CCn1c(-c2c(Cl)cccc2Cl)nc(-c2ccncc2)c1-c1ccc(C)cc1 [Example 19, 4-[1-Allyl-2-(2,6-dichloro-phenyl)-5-(4-methyl-phenyl)-1H-imidazol-4-yl]-pyridine] | 7.47 | 147 to 149 °C
2 | Cc1cc(C)c(-c2nc(-c3ccncc3)c(-c3ccc(Cl)cc3)n2CCO)c(C)c1 [Example 26, 2-[5-(4-Chloro-phenyl)-4-pyridin-4-yl-2-(2,4,6-trimethyl-phenyl)-imidazol-1-yl]-ethanol] | 7.20 | 
3 | CCn1c(-c2c(Cl)cccc2Cl)nc(-c2ccncc2)c1-c1ccc(C)cc1 [Example 11, 4-[2-(2,6-Dichloro-phenyl)-1-ethyl-5-(4-methyl-phenyl)-1H-imidazol-4-yl]-pyridine] | 7.89 | 191 to 193 °C
4 | CCn1c(C(O)(C2CCCCC2)C2CCCCC2)nc(-c2ccncc2)c1-c1ccc(Cl)cc1 [Example 47, [5-(4-Chloro-phenyl)-1-ethyl-4-pyridin-4-yl-1H-imidazol-2-yl]-dicyclohexyl-methanol] | 7.74 | 221 to 224 °C
5 | CCCC(CCC)c1nc(-c2ccncc2)c(-c2ccc(Cl)cc2)n1CC [Example 37, 4-[5-(4-Chloro-phenyl)-1-ethyl-2-(1-propyl-butyl)-1H-imidazol-4-yl]-pyridine] | 7.31 | 152 to 155 °C
6 | CCn1c(C(O)(C2CC2)C2CC2)nc(-c2ccncc2)c1-c1ccc(Cl)cc1 [Example 43, [5-(4-Chloro-phenyl)-1-ethyl-4-pyridin-4-yl-1H-imidazol-2-yl]-dicyclopropyl-methanol] | 6.95 | 185 to 188 °C
7 | Cn1c(-c2c(Cl)cccc2Cl)nc(-c2ccncc2)c1-c1ccc(Cl)cc1 [Example 3, 4-[5-(4-Chloro-phenyl)-2-(2,6-dichloro-phenyl)-1-methyl-1H-imidazol-4-yl]-pyridine] | 8.15 | 257 to 260 °C
8 | Clc1ccc(-c2c(-c3ccncc3)nc(-c3c(Cl)cccc3Cl)n2C2CC2)cc1 [Example 27, 4-[5-(4-Chloro-phenyl)-1-cyclopropyl-2-(2,6-dichloro-phenyl)-1H-imidazol-4-yl]-pyridine] | 7.68 | 210 to 211 °C
